Measured values as given in patent publication EP2090164B1, “A rodenticide bait based on a synergetic association of anticoagulant active ingredients” (priority 2008, dated 2009).

What was measured:
[1] = tested on: murine population; conditions: in vivo; cited from earlier work
[2] = tested on: Rattus norvegicus; conditions: young prepubertal; females of Rattus norvegicus; cited from earlier work
[3] = tested on: Mus musculus; conditions: both genders and all ages of the Mus musculus; cited from earlier work
[4] = tested on: infesting murine species; format: in vivo; conditions: same amount of anticoagulant
[5] = tested on: rat; conditions: active ingredient; cited from earlier work
[6] = tested on: mouse; conditions: active ingredient; cited from earlier work
[7] = tested on: dog; conditions: active ingredient; cited from earlier work
[8] = tested on: cat; conditions: active ingredient; cited from earlier work
[9] = cited from earlier work
[10] = WHO, 1995, cited from earlier work
[11] = liver and kidney, two-phase course

| SMILES | eliminating of the treated murine population [1] | activity as chemosterilant [2] | activity as chemosterilant [3] | disinfesting action with respect to that of brodifacoum [4] | a.p. LD50 [5] [mg/kg] | a.p. LD50 [6] [mg/kg] | a.p. LD50 [7] [mg/kg] | a.p. LD50 [8] [mg/kg] | half-life in man [9] [days] | elimination from both liver and kidney, rather rapid initial phase [10, 11] [days] | elimination from both liver and kidney, second, much slower, phase [10, 11] [days] | half-life in the pancreas ([10]; pancreas) [days] |
| --- | --- | --- | --- | --- | --- | --- | --- | --- | --- | --- | --- | --- |
| OCC(O)CCl (stereo not drawn) [α-chlorohydrin] | up to 85% | not active | not active | – | – | – | – | – | – | – | – | – |
| O=c1oc2ccccc2c(O)c1C1CC(c2ccc(-c3ccccc3)cc2)Cc2ccccc21 (stereo not drawn) [DIPHENACOUM, diphenacoum] | – | – | – | inferior | 1.8 | 0.8 | >50.0 | >100 | 11.5 | 3 | 118 to 120 | 182 |
| O=c1oc2ccccc2c(O)c1C(CC(O)c1ccc(-c2ccc(Br)cc2)cc1)c1ccccc1 (stereo not drawn) [BROMADIOLON, bromadiolon] | – | – | – | inferior | 1.125 | 1.75 | >10.0 | >25 | – | – | – | – |
| O=c1oc2ccccc2c(O)c1C1CC(c2ccc(-c3ccc(Br)cc3)cc2)Cc2ccccc21 (stereo not drawn) [BRODIFACOUM, brodifacoum] | – | – | – | – | 0.4 | 0.4 | 0.25 to 3.6 | 25 | – | – | – | – |
